{
  "source": "patent US10335399B2",
  "about": "“Chromane, isochromane and dihydroisobenzofuran derivatives as mGluR2—negative allosteric modulators, compositions, and their use” (Merck Sharp & Dohme Corp., priority 2016, dated 2019)",
  "data": [
    {"target": "recombinant human mGluR2 (Homo sapiens (Human), UniProt Q14416)", "sequence (Q14416 19-872)": "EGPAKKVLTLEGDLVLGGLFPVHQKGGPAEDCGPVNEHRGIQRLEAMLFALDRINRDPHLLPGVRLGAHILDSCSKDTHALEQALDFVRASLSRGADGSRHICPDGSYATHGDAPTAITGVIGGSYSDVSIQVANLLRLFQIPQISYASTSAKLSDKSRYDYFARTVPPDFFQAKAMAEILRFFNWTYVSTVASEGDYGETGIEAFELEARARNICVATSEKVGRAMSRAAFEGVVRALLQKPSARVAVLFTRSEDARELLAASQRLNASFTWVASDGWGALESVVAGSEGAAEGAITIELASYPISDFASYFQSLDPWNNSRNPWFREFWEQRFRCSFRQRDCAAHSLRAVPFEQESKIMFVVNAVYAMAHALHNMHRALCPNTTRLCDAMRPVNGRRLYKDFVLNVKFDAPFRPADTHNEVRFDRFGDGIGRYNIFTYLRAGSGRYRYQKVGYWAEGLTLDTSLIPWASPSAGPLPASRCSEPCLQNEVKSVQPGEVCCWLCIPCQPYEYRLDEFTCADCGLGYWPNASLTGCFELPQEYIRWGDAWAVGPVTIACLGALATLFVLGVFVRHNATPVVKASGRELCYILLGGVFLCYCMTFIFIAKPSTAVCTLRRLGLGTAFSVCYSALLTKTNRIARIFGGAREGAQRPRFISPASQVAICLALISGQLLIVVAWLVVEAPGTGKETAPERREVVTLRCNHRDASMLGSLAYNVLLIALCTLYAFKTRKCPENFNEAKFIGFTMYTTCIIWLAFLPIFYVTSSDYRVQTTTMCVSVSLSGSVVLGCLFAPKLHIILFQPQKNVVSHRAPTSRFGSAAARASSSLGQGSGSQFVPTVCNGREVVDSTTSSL", "experiment": "FLIPR Ca2+ mobilization assay: inhibition of glutamate-dependent mGluR2 activity", "assay_type": "cell-based", "settings": "CHO dhfr- cells stably expressing recombinant human mGluR2 and Gα16, Fluo-4 AM, FLIPR384; inhibition of response to 2,500 nM glutamate", "description": "Inhibition constants (IC50s; the concentration of compound required to provide 50% of maximal activity) are determined as follows. The compounds of the invention were tested in a fluorescence laser imaging plate reader based assay. This assay is a common functional assay to monitor Ca^2+ mobilization in whole cells expressing recombinant receptor coupled with a promiscuous G-protein. CHO (Chinese hamster ovary) dhfr− cells stably expressing recombinant human mGluR2 and Gα16 loaded with Fluo-4 AM (Invitrogen, Carlsbad Calif., USA) were treated with various concentrations of each of the tested compounds of the invention and the Ca^2+ response was monitored on a FLIPR384 instrument (Molecular Devices, Sunnydale Calif., USA). […] The maximum calcium response at each concentration of compound for agonist or antagonist were plotted as dose responses and the curves were fitted with a four parameter logistic equation giving IC50 and Hill coefficient using the iterative non-linear curve fitting software ADA (Merck & Co., Inc.). Data in the following table lists the activity of each compound to inhibit glutamate-dependent mGluR2 activity in this cellular assay.", "units": {"IC50": "nM"}, "values": [
      {"smiles": "NC(=O)c1cc(-c2ccc(F)cc2F)c2c(n1)O[C@H](C1CC1)CC2", "note": "[Example 2-3B, (S)-2-cyclopropyl-5-(2,4-difluorophenyl)-3,4-dihydro-2H-pyrano[2,3-b]pyridine-7-carboxamide]", "IC50": 32},
      {"smiles": "COC[C@@H]1CCc2c(-c3ccc(F)cc3F)cc(C(N)=O)nc2O1", "note": "(single isomer, unassigned) [Example 3-5A]", "IC50": 26},
      {"smiles": "C[C@@]1(COC(F)F)CCc2c(-c3ccc(F)cc3F)cc(C(N)=O)nc2O1", "note": "(single isomer, unassigned) [Example 2-8A]", "IC50": 8},
      {"smiles": "NC(=O)c1cc(-c2cnn(C(F)F)c2)c2c(n1)OC(COC(F)F)CC2", "note": "(single isomer, unassigned) [Example 3-4B, (R)- or (S)-2-((difluoro-methoxy)methyl)-5-(1-(difluoromethyl)-1H-pyrazol-4-yl)-3,4-dihydro-2H-pyrano[2,3-b]pyridine-7-carboxamide]", "IC50": 1490},
      {"smiles": "C[C@]1(COC(F)F)CCc2c(-c3ccc(F)cc3F)cc(C(N)=O)nc2O1", "note": "(single isomer, unassigned) [Example 2-8B]", "IC50": 14},
      {"smiles": "C[C@H]1Cc2c(-c3ccc(F)cc3F)cc(C(N)=O)nc2O[C@H]1COC(F)F", "note": "(single isomer, unassigned) [Example 3-9D]", "IC50": 9},
      {"smiles": "NC(=O)c1cc(-c2ccc(F)cc2F)c2c(n1)COCC2", "note": "[Example 1-1, 4-(2,4-difluorophenyl)-5,8-dihydro-6H-pyrano[3,4-b]pyridine-2-carboxamide]", "IC50": 277},
      {"smiles": "NC(=O)c1cc(-c2ccc(F)cc2F)c2c(n1)[C@H]1CC[C@@H]2O1", "note": "(single isomer, unassigned) [Example 5-1A]", "IC50": 159},
      {"smiles": "C[C@@H]1CCc2c(-c3ccc(F)cc3F)cc(C(N)=O)nc2O1", "note": "(single isomer, unassigned) [Example 2-6A]", "IC50": 10},
      {"smiles": "C[C@@H](OC(F)F)[C@@H]1CCc2c(-c3ccc(F)cc3F)cc(C(N)=O)nc2O1", "note": "[Example 2-9B, (S)-2-((R)-1-(difluoromethoxy)ethyl)-5-(2,4-difluorophenyl)-3,4-dihydro-2H-pyrano[2,3-b]pyridine-7-carboxamide]", "IC50": 114},
      {"smiles": "NC(=O)c1cc(-c2ccc(F)cc2F)c2c(n1)[C@@H]1CC[C@H](C2)O1", "note": "(single isomer, unassigned) [Example 1-2B]", "IC50": 21},
      {"smiles": "C[C@H](OC(F)F)[C@H]1CCc2c(-c3ccc(F)cc3F)cc(C(N)=O)nc2O1", "note": "[Example 2-9C, (R)-2-((S)-1-(difluoromethoxy)ethyl)-5-(2,4-difluorophenyl)-3,4-dihydro-2H-pyrano[2,3-b]pyridine-7-carboxamide]", "IC50": 11},
      {"smiles": "NC(=O)c1cc(-c2ccc(F)cc2F)c2c(n1)O[C@H](CC(F)(F)F)CC2", "note": "(single isomer, unassigned) [Example 3-8A]", "IC50": 12},
      {"smiles": "NC(=O)c1cc(-c2cnn(C(F)F)c2)c2c(n1)C1CCC(C2)O1", "note": "(single isomer, unassigned) [Example 1-5A, (6R,9S)- or (6S,9R)-4-(1-(difluoromethyl)-1H-pyrazol-4-yl)-6,7,8,9-tetrahydro-5H-6,9-epoxycyclo-hepta[b]pyridine-2-carboxamide]", "IC50": "> 3000"},
      {"smiles": "C[C@@H]1Cc2c(-c3ccc(F)cc3F)cc(C(N)=O)nc2O[C@H]1COC(F)F", "note": "[Example 3-9C, (2R,3R)-2-((difluoromethoxy)methyl)-5-(2,4-difluoropheny)-3-methyl-3,4-dihydro-2H-pyrano[2,3-b]pyridine-7-carboxamide]", "IC50": 15},
      {"smiles": "NC(=O)c1cc(-c2ccc(F)cc2)c2c(n1)OC(COC(F)F)CC2", "note": "(single isomer, unassigned) [Example 3-2A, (S)- or (R)-2-((difluoro-methoxy)methyl)-5-(4-fluorophenyl)-3,4-dihydro-2H-pyrano[2,3-b]pyridine-7-carboxamide]", "IC50": 18},
      {"smiles": "NC(=O)c1cc(-c2ccc(F)cc2F)c2c(n1)O[C@H](CNCC(F)(F)F)CC2", "note": "[Example 4-2A, (S)-5-(2,4-difluoropheny)-2-(((2,2,2-trifluoroethyl)amino)methyl)-3,4-dihydro-2H-pyrano[2,3-b]pyridine-7-carboxamide]", "IC50": 21},
      {"smiles": "C[C@@H]1Cc2c(-c3ccc(F)cc3F)cc(C(N)=O)nc2O[C@@H]1COC(F)F", "note": "(single isomer, unassigned) [Example 3-9A]", "IC50": 7},
      {"smiles": "Cn1cc(-c2cc(C(N)=O)nc3c2CC2CCC3O2)cn1", "note": "(single isomer, unassigned) [Example 1-4B, (6S,9R)- or (6R,9S)-4-(1-methyl-1H-pyrazol-4-yl)-6,7,8,9-tetrahydro-5H-6,9-epoxycyclo-hepta[b]pyridine-2-carboxamide]", "IC50": 1770},
      {"smiles": "NC(=O)c1cc(-c2ccc(F)cc2F)c2c(n1)[C@@H]1CC[C@H]2O1", "note": "(single isomer, unassigned) [Example 5-1B]", "IC50": 500}
    ]}
  ]
}
